Our source for the IC50 values is PMC7018972, “Novel and selective inactivators of Triosephosphate isomerase with anti-trematode activity” (Scientific Reports, 2020).

For orientation: IC50 means the concentration that gives 50% inhibition.

Chain of Fasciola hepatica TIM (FhTIM) (S4UI50 entry or part of it): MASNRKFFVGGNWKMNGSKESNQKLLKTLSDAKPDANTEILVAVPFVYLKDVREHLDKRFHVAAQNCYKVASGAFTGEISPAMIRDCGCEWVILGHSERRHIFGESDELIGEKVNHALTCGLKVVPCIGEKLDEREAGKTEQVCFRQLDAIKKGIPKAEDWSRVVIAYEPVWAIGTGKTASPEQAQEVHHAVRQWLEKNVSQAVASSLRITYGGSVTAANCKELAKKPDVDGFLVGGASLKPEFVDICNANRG

The first assay addresses Fasciola hepatica TIM (FhTIM) (Fasciola hepatica, UniProt S4UI50). The assay can be described thus: Inhibition of recombinant FhTIM, coupled enzyme assay. The format is biochemical. The following applies: Figure 1, ranges of inhibitory activity; read-out: IC50 range. In a few lines:
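E. coli-expressed FhTIM preincubated with compound 1 h at 37 °C in 100 mM triethanolamine, 10 mM EDTA, pH 7.4, 10% DMSO. Aliquot diluted into coupled assay (1 mM glyceraldehyde-3-phosphate, 0.2 mM NADH, α-glycerol phosphate dehydrogenase, pH 7.4) with NADH decrease at 340 nm, 38 °C. Triplicate, two independent experiments.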
For the compound `O=C1C(=Cc2ccc([N+](=O)[O-])cc2)C(=O)N(Cc2ccccc2)S(=O)(=O)N1Cc1ccccc1` [Compound 111], the IC50 is below 50 µM.

Turning to `CN(C)Cc1ccccc1Cn1nc(O)c2cc([N+](=O)[O-])ccc21` [Compound 482], the IC50 was below 50 µM.

The assay is the same for the next values; noted with them: Table 1S, screening of 340 compounds in FhTIM; table head prints no unit, µM per b8/b9; read-out: IC50.
For `C=CCn1c(-c2ccccc2)csc1=NN=Cc1cccs1` [Compound 272], the IC50 is above 100 µM. Still for that read-out and setting: then `CN1C/C(=C\C=C\c2ccccc2)C(=O)/C(=C/C=C/c2ccccc2)C1` [Compound 1284], with 50 to 100 µM; and `[O-][n+]1onc(-c2ccccc2)c1CN1CCOCC1` [Compound 352], with above 100 µM. The same measure, in the same setting: then `O=S(=O)(O)c1ccc(C=NN=c2scc(-c3csc(=NN=Cc4ccc(S(=O)(=O)O)o4)n3-c3ccccc3)n2-c2ccccc2)o1` [Compound 781], with above 100 µM; and `O=C(O)c1csc(=NN=CC=CC=Cc2cccs2)n1-c1ccccc1` [Compound 1136], with above 100 µM; and `C=CCn1c(C(=O)N2CCN(Cc3ccccc3)CC2)csc1=NN=CC=Cc1ccco1` [Compound 1117], with above 100 µM. With `C=CCn1c(C(=O)N2CCN(CC=Cc3ccccc3)CC2)csc1=NN=CC=Cc1ccco1` [Compound 314], the IC50 was above 100 µM.

On to `Cc1c(C=Cc2ccc(N(C)C)cc2)[n+]([O-])cn[n+]1[O-]` [Compound 219], for which the 50% inhibitory concentration (IC50) is above 100 µM. Take `O=C(C=Cc1cccc2ccccc12)c1ccccc1` [Compound 1266]: the IC50 is above 100 µM. With `C=CCn1c(-c2ccc([N+](=O)[O-])cc2)csc1=NN=CC=Cc1ccc([N+](=O)[O-])s1` [Compound 131], the half-inhibitory concentration (IC50) is above 100 µM.

Consider `O=[N+]([O-])c1c(Cl)cc2c(no[n+]2[O-])c1N1CCN(c2c([N+](=O)[O-])c(Cl)cc3c2no[n+]3[O-])CC1` [Compound 704], for which the IC50 is above 100 µM. With `CN(C)c1ccncc1` [Compound 1101], the IC50 was above 100 µM. Still for that read-out and setting: then `C=CCn1c(C)csc1=NN=Cc1ccc(S(=O)(=O)O)o1` [Compound 1130], with above 100 µM; and `C=CCn1c(-c2ccc([N+](=O)[O-])cc2)csc1=NN=Cc1ccc([N+](=O)[O-])s1` [Compound 146], with above 100 µM. With `O=C(O)c1ccc(Cl)[n+]([O-])c1` [Compound 472], the IC50 is above 100 µM.

As for `O=C1C(=Cc2cccs2)CCCC1=Cc1cccs1` [Compound 807], the IC50 is above 100 µM.

As to `O=C1C(=Cc2ccc([N+](=O)[O-])cc2)C(=O)N(Cc2ccccc2)S(=O)(=O)N1Cc1ccccc1` [Compound 111], the IC50 is below 25 µM. On the same count and under the same terms, in the case of `CC1(C)[N+]([O-])=c2ccc(C3OCCO3)cc2=[N+]1[O-]` [Compound 105] it was above 100 µM; in that of `CC12CCC(O)CC1=CCC1C2CCC2(C)C(C(=O)C=Cc3ccccc3Cl)CCC12` (stereo not shown) [Compound 1259], above 100 µM; in that of `C=CCNC(=S)NN=Cc1ccc2c(c1)OCO2` [Compound 280], above 100 µM. On the same count and under the same terms, in the case of `[O-][n+]1onc2cc(F)c(F)cc21` [Compound 627] it was above 100 µM. Regarding `C=CCn1c(-c2csc(=NN=CC=Cc3ccccc3)n2-c2ccccc2)csc1=NN=CC=Cc1ccco1` [Compound 791], the half-maximal inhibitory concentration (IC50) was above 100 µM. On the same count and under the same terms, in the case of `O=C(/C=C/c1ccc([N+](=O)[O-])o1)N1CCN(C/C=C/c2ccccc2)CC1` [Compound 51] it was above 100 µM; in that of `C=CCn1c(-c2ccc(Cl)cc2)csc1=NN=CC=Cc1ccco1` [Compound 266], above 100 µM.

In the case of `C=CCNC(=S)NN=Cc1ccc(SC)cc1` [Compound 281], the IC50 was above 100 µM. Still for that read-out and setting: then `C=CCn1c(-c2ccc(Cl)cc2)csc1=NN=Cc1ccc(Cl)cc1` [Compound 265], with above 100 µM. On the same count and under the same terms, in the case of `CCCCNCCCCCn1nc(OC)c2cc([N+](=O)[O-])ccc21` [Compound 643] it was above 100 µM; in that of `O=C1C(=CC=Cc2ccccc2)CCC1=CC=Cc1ccccc1` [Compound 1246], 50 to 100 µM. Same read-out and setting: in the case of `[O-][n+]1onc2ccccc21` [Compound 1197] it was above 100 µM. As for `CN(C)CCCCCn1nc(O)c2cc([N+](=O)[O-])ccc21` [Compound 477], the IC50 is above 100 µM. Take `O=C1CCCC2=C1C(c1ccc(C(=O)O)cc1)c1ccc3ccccc3c1N2` (stereo not shown) [Compound 698]: the IC50 is above 100 µM. For `O=C1CSC(=NN=Cc2ccc([N+](=O)[O-])s2)N1c1ccccc1` [Compound 262], the IC50 is above 100 µM. With `Brc1ccc(-c2c[se]c(=NN=CC=Cc3ccccc3)n2CCN2CCOCC2)cc1` [Compound 1222], the IC50 fell in the range of 50 to 100 µM. Same read-out and setting: then `C=CCn1c(-c2csc(=NN=Cc3ccccc3)n2-c2ccccc2)csc1=NN=CC=Cc1ccco1` [Compound 782], with above 100 µM; and `O=C1C(=CC=Cc2cccs2)CCCC1=CC=Cc1cccs1` [Compound 1245], with above 100 µM. Regarding `C=CCn1c(-c2ccc(Br)cc2)csc1=NN=C/C=C/c1cccs1` [Compound 1137], the IC50 is 50 to 100 µM. Regarding `N#CSCC(=O)c1ccccc1` [Compound 811], the IC50 is above 100 µM.

Consider `Cc1nnc[n+]([O-])c1/C=C/c1ccc(Cl)cc1` [Compound 211], for which the IC50 is above 100 µM.

Regarding `Cc1nnc[n+]([O-])c1C=Cc1ccc(N(C)C)cc1` [Compound 641], the IC50 is above 100 µM. Take `C=CCNC(=S)NN=Cc1ccco1` [Compound 69]: the IC50 was above 100 µM. As for `NS(=O)(=O)NCc1ccccc1` [Compound 124], the 50% inhibitory concentration (IC50) is above 100 µM. The same measure, in the same setting: then `CCOC(=O)c1cc2c(n1CC)C(=O)C(Oc1ccc(Cl)cc1)=CC2=O` [Compound 1129], with above 100 µM. Still for that read-out and setting: in the case of `Cc1ccc2c(c1)=[N+]([O-])C(C)(C)[N+]=2[O-]` [Compound 109] it was above 100 µM; in that of `N#CC(C#N)=CC=Cc1ccco1` [Compound 579], above 100 µM.

As to `C=CCn1c(-c2ccccc2)csc1=NN=CC=Cc1ccco1` [Compound 276], the concentration for half-maximal inhibition (IC50) is above 100 µM. Turning to `O=C1CCCC2=C1C(c1cccc(Br)c1)c1ccc3ccccc3c1N2` (stereo not shown) [Compound 699], the IC50 was above 100 µM. With `C=CCn1c(-c2ccc(OC)cc2)csc1=NN=Cc1ccc([N+](=O)[O-])s1` [Compound 132], the IC50 is above 100 µM. Consider `C=CCn1c(-c2ccc(Cl)cc2)csc1=NN=CC=Cc1ccc(C)o1` [Compound 872], for which the 50% inhibitory concentration (IC50) was above 100 µM.

Still in this assay, the particulars now being: recombinant FhTIM, 1 h incubation with compound at 37 °C; read-out: IC50.
As to `Nc1ccc2nc3ccc(F)cc3nc2c1` [Compound 1149], the half-inhibitory concentration (IC50) stood at 50 ± 6 µM. Still for that read-out and setting: in the case of `CN(C)Cc1ccccc1Cn1nc(O)c2cc([N+](=O)[O-])ccc21` [Compound 482] it was 30 ± 3 µM.
